Consider 5 compounds from article PMC11246197 (Journal of medicinal chemistry, 2024).

Structures are written as SMILES. Where two headings read alike, the source gives them in different places. Bounds are passed on as bounds.

One data set has as its system BEAS-2B cells. It is filed as cell-based, human. The settings on record: BNPP (CES1 inhibitor) up to 20 μM co-incubated with 10 μM ProTide.
Data set [1] in a line: Prodrug hydrolysis in human intestine S9 fractions. It is filed as in vitro ADME. The following applies: 15 min incubation.
Data set [2] is described as follows: Prodrug hydrolysis in human liver S9 fractions. Format: in vitro ADME. The following applies: 15 min incubation.
The nature of data set [3]: Plasma PK after oral administration in Ces1c−/− mice. The settings on record: 54.4 μmole/kg.
For data set [4], the target named is recombinant human CatA (rhCatA) (Homo sapiens, UniProt P10619). As to the kind of experiment: Hydrolysis of ProTides by recombinant human CatA. It is filed as biochemical. The settings on record: 20 μM prodrug, 0.5 ng/μL rhCatA, 10 min, MES buffer pH 5.5, 37 °C, n = 3.
The target in data set [5] is T1, recombinant human CES1 (rhCES1) (Homo sapiens, UniProt P23141).
T1 sequence (P23141 18-567): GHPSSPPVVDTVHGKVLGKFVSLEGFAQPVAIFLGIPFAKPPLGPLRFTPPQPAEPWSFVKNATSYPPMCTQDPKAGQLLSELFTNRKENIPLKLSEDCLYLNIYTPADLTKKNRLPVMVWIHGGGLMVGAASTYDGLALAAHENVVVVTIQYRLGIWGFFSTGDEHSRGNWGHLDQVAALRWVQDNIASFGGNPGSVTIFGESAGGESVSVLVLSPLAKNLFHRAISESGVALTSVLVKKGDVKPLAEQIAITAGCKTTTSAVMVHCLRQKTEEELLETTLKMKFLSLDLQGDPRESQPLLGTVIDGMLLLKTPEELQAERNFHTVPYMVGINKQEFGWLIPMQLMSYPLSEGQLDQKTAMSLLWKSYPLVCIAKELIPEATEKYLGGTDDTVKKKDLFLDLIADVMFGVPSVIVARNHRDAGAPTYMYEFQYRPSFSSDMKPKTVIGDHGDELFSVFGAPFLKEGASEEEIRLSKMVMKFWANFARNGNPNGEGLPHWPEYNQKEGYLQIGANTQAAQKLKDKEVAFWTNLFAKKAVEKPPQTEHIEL
As to the kind of experiment: Hydrolysis of ProTides by recombinant human CES1. It is filed as biochemical. The following applies: 20 μM prodrug, 40 ng/μL rhCES1, 20 min, Tris buffer pH 7.5, 37 °C, n = 3.

For data set [6] the following is noted: cited from earlier work.
For data set [7] the following is noted: cited from earlier work. The source holds these as a separate data set.
Data set [8] in a line: Ex vivo human plasma stability. The settings on record: 10 μM, 37 °C, 4 hours.
Data set [9] can be described thus: Plasma PK after IV administration. The settings on record: for AUC(0-inf) / AUC(0-t) / Cmax / Vd / half-life / concentration at 15 min: male, mouse, plasma, iv; for AUC(0-inf) / AUC(0-t) / Cmax / Vd / half-life: Ces1c−/− (JAX stock # 014096).
For data set [10] the following is noted: 24 h, 10 μM.
The conditions of data set [11]: male, Ces1c−/− (Ces1c knockout), in vivo, iv.
Data set [12] has as its system human bronchial epithelial cells. The following applies: within 48 hours after drug treatment; cited from earlier work.
The subject of the next data set is VeroE6 cells. The following applies: read-out: 50% cytotoxic concentration (CC50); cited from earlier work.
Another data set relates to iPSC-AT2. The following applies: read-out: 50% cytotoxic concentration (CC50); cited from earlier work.
In the next data set the test system is lung virus titers. The following applies: 2 days post infection, cited from earlier work.
The conditions of data set [13]: wild-type mice; cited from earlier work.
The conditions of data set [14]: cited from earlier work. This is another data set of the same source.
Where [15] appears, read: IV bolus, 54.4 μmole/kg, Ces1c−/− mice.

Sequence of recombinant human CatA (rhCatA) (P10619 327-480): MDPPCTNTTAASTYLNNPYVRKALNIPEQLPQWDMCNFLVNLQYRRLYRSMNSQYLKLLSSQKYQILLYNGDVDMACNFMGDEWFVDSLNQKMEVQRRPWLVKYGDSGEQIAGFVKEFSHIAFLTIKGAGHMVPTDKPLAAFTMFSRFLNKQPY
Sequence of recombinant human CatA (rhCatA) (P10619 29-326): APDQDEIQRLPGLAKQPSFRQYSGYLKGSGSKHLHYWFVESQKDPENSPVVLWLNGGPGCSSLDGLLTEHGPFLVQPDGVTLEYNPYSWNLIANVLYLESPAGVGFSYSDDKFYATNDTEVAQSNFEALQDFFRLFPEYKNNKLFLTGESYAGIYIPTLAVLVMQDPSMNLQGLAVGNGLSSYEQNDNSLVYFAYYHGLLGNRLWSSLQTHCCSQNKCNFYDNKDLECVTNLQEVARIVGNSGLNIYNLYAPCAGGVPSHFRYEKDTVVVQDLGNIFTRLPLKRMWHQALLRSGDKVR

As to `O=[N+]([O-])c1ccc(OP(=O)(O)Oc2ccc([N+](=O)[O-])cc2)cc1` [BNPP, Bis-(p-nitrophenyl) phosphate], the “Effect of inhibitor on the formation of RDV-TP” value in the data set on BEAS-2B cells was “did not significantly alter”.

As to `CC(C)C(=O)OC[C@H]1O[C@@](C#N)(c2ccc3c(N)ncnn23)[C@H](OC(=O)C(C)C)[C@@H]1OC(=O)C(C)C` [GS-621763], the “Prodrug remaining in human intestine homogenate” value in [1] is “could barely be detected”. Moreover, the “Prodrug remaining in human liver homogenate” value in data set [2] is “could barely be detected”. Also, in data set [3], the “Prodrug form in plasma after oral administration” value (“Prodrug form in plasma” below) was “barely detected”.

In the case of `CC(C)OC(=O)[C@H](C)N[P@](=O)(OC[C@H]1O[C@@](C#N)(c2ccc3c(N)ncnn23)[C@H](O)[C@@H]1O)Oc1ccccc1` [IsoRDV], in data set [4], the “Activity of rhCatA for prodrug hydrolysis” value was 236.7 ± 172.8 pmol/min/μg protein. Moreover, the “Activity of rhCES1 for prodrug hydrolysis” value in data set [5] was 7.7 ± 1.4 pmol/min/μg protein. Besides, the “Stability in human plasma” value in data set [6] was 1561 min. Also, the logD in [7] is reported as 1.1. Further, the “Hydrolyzed in human plasma” value in [8] is recorded as about 15%. Besides, in data set [3], the “Oral bioavailability (estimated)” value is reported as “less than 2%” and the “Prodrug form in plasma” value is listed as “barely detected”. In addition, in data set [9] (setting [15]), the “AUC0-∞ of the administered compound in plasma” value is given as 4,950.3 ± 628.2 h⋅nM, the “CL/F of the administered compound” value turned out to be 0.28 ± 0.03 L⋅h^−1, the “Vd (apparent distribution volume)” value was determined as 0.42 ± 0.17 L and the “t1/2 of the administered compound in plasma” value was found to be 1.04 ± 0.33 h. In [9] (IV bolus, 54.4 μmole/kg, Ces1c−/− mice, AUC0-t(8h)), the “AUC0-t of the administered compound in plasma” value is listed as 4,941.6 ± 626.4 h⋅nM.

With `N#C[C@@]1(c2ccc3c(N)ncnn23)O[C@H](CO)[C@@H](O)[C@H]1O` [Nuc], the “Reduction after incubation with human plasma” value in data set [10] was found to be 5%. Moreover, the “RDV-TP concentrations in the mouse lung relative to estimated EC50/EC90” value in data set [11] is recorded as “constantly below EC50”. The “RDV-TP levels, fold lower than RDV” value in [12] is recorded as “at least 40 fold”. Also, the “CL/F of the administered compound” value in [9] (setting [15]) is given as 0.052 ± 0.002 L⋅h^−1. In data set [9] (54.4 μmole/kg), the AUC(0-inf) amounted to 26.3 µM·h, the AUC(0-t) was found to be 25.1 µM·h, the Cmax worked out at 18.1 µM and the Vd is 0.47 ± 0.29 L. In data set [9] (54.4 μmole/kg), this compound had a half-life of 6.34 ± 4.01 h and a concentration at 15 min of 18.1 µM.

Take `CCC(CC)COC(=O)[C@H](C)N[P@](=O)(OC[C@H]1O[C@@](C#N)(c2ccc3c(N)ncnn23)[C@H](O)[C@@H]1O)Oc1ccccc1` [RDV, remdesivir]: the “Activity of rhCatA for prodrug hydrolysis” value in data set [4] is on record as 1,786.5 ± 179.2 pmol/min/μg protein. Besides, the “Activity of rhCES1 for prodrug hydrolysis” value in data set [5] is 15.5 ± 1.8 pmol/min/μg protein. The CC50 with VeroE6 cells is 101 µM. Moreover, in the data set with iPSC-AT2, the CC50 was 32.7 µM. In the data set on lung virus titers (25 mg/kg twice daily), the “Effect on lung virus titers” value is listed as “significantly reduced the lung virus titers”. Besides, in the data set with lung virus titers (50 mg/kg single dose daily), the “Effect on lung virus titers” value was “could not”. Besides, in [6], the “Half-life in human plasma” value is 1.15 h, the “Half-life in human plasma ex vivo” value is 1.15 h and the “Stability in human plasma” value is 69 min. Also, the “Plasma half-life in mice” value in data set [13] was under 5 min. Moreover, in data set [14], the “Plasma half-life in Ces1c−/− mice” value is ~ 25 min. In addition, the “Hydrolyzed in human plasma” value in data set [8] is on record as “approximately 70%”. Also, the “Prodrug form in plasma” value in data set [3] is “barely detected”. Moreover, in data set [9] (setting [15]), the “CL/F of the administered compound” value is 1.06 ± 0.44 L⋅h^−1 and the “Presence in plasma 4 hours after IV administration” value is on record as “barely detectable”. In data set [9] (54.4 μmole/kg), the AUC(0-inf) came to 1.58 µM·h, the AUC(0-t) was found to be 1.57 µM·h, the Cmax came out at 1.37 µM and the Vd worked out at 1.91 ± 0.94 L. For the same compound, in data set [9] (54.4 μmole/kg), the half-life is 1.25 ± 0.39 h and the concentration at 15 min was determined as 1.37 µM. In addition, the “Portion of plasma RDV that disappeared” value in [9] (within 30 minutes after IV administration) is recorded as “about 90%”.
